Experimental data reported in patent publication US20140343000A1 (priority 2011, published 2014).

test system: recombinant NL4-3 virus (Renilla luciferase in nef, Gag P373S; NLRluc) in MT-2 cells; assay: whole plant or invertebrate; assay type: cell-based, HIV; details: Renilla, NL43, luciferase activity in cells infected for 4-5 days with NLRluc recombinants, serial dilutions of inhibitor; class symbols (key in Table 1); read-out: EC50
How it was run: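 MT-2 cells infected 4–5 days with NL4-3 carrying Renilla luciferase in nef and Gag P373S, with serial dilutions of inhibitor present. Antiviral activity quantified by luciferase activity, using Dual Luciferase reagents premixed with lysis buffer and read immediately.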

SMILES | EC50 [nM]
C=C(C)[C@@H]1CC[C@]2(NC(=O)N3CCCN(C(C)=O)CC3)CC[C@]3(C)[C@H](CC[C@@H]4[C@@]5(C)CC=C(c6ccc(C(=O)O)cc6)C(C)(C)[C@@H]5CC[C@]43C)[C@@H]12 [Example 35, 4-((1R,3aS,5aR,5bR,7aR,11aS,11bR,13aR,13bR)-3a-(4-acetyl-1,4-diazepane-1-carboxamido)-5a,5b,8,8,11a-pentamethyl-1-(prop-1-en-2-yl)-2,3,3a,4,5,5a,5b,6,7,7a,8,11,11a,11b,12,13,13a,13b-octadecahydro-1H-cyclopenta[a]chrysen-9-yl)benzoic acid] | < 100
C=C(C)[C@@H]1CC[C@]2(NC(=O)OC)CC[C@]3(C)[C@H](CC[C@@H]4[C@@]5(C)CC=C(c6ccc(C(=O)O)cc6)C(C)(C)[C@@H]5CC[C@]43C)[C@@H]12 [Example 36, 4-((1R,3aS,5aR,5bR,7aR,11aS,11bR,13aR,13bR)-3a-(methoxycarbonylamino)-5a,5b,8,8,11a-pentamethyl-1-(prop-1-en-2-yl)-2,3,3a,4,5,5a,5b,6,7,7a,8,11,11a,11b,12,13,13a,13b-octadecahydro-1H-cyclopenta[a]chrysen-9-yl)benzoic acid] | < 100
C=C(C)[C@@H]1CC[C@]2(NC(=O)N3CCN(CCO)CC3)CC[C@]3(C)[C@H](CC[C@@H]4[C@@]5(C)CC=C(c6ccc(C(=O)O)cc6)C(C)(C)[C@@H]5CC[C@]43C)[C@@H]12 [Example 38, 4-((1R,3aS,5aR,5bR,7aR,11aS,11bR,13aR,13bR)-3a-(4-(2-hydroxyethyl)piperazine-1-carboxamido)-5a,5b,8,8,11a-pentamethyl-1-(prop-1-en-2-yl)-2,3,3a,4,5,5a,5b,6,7,7a,8,11,11a,11b,12,13,13a,13b-octadecahydro-1H-cyclopenta[a]chrysen-9-yl)benzoic acid] | < 100
C=C(C)[C@@H]1CC[C@]2(NC(=O)N3CCN(CCN(C)C)CC3)CC[C@]3(C)[C@H](CC[C@@H]4[C@@]5(C)CC=C(c6ccc(C(=O)O)cc6)C(C)(C)[C@@H]5CC[C@]43C)[C@@H]12 [Example 39, 4-((1R,3aS,5aR,5bR,7aR,11aS,11bR,13aR,13bR)-3a-(4-(2-(dimethylamino)ethyl)piperazine-1-carboxamido)-5a,5b,8,8,11a-pentamethyl-1-(prop-1-en-2-yl)-2,3,3a,4,5,5a,5b,6,7,7a,8,11,11a,11b,12,13,13a,13b-octadecahydro-1H-cyclopenta[a]chrysen-9-yl)benzoic acid] | < 100
C=C(C)[C@@H]1CC[C@]2(NC(=O)N3CCN(C4CCN(C)CC4)CC3)CC[C@]3(C)[C@H](CC[C@@H]4[C@@]5(C)CC=C(c6ccc(C(=O)O)cc6)C(C)(C)[C@@H]5CC[C@]43C)[C@@H]12 [Example 40, 4-((1R,3aS,5aR,5bR,7aR,11aS,11bR,13aR,13bR)-5a,5b,8,8,11a-pentamethyl-3a-(4-(1-methylpiperidin-4-yl)piperazine-1-carboxamido)-1-(prop-1-en-2-yl)-2,3,3a,4,5,5a,5b,6,7,7a,8,11,11a,11b,12,13,13a,13b-octadecahydro-1H-cyclopenta[a]chrysen-9-yl)benzoic acid] | < 100
C=C(C)[C@@H]1CC[C@]2(NC(=O)N3CCN(C(C)=O)CC3)CC[C@]3(C)[C@H](CC[C@@H]4[C@@]5(C)CC=C(c6ccc(C(=O)O)cc6)C(C)(C)[C@@H]5CC[C@]43C)[C@@H]12 [Example 41, 4-((1R,3aS,5aR,5bR,7aR,11aS,11bR,13aR,13bR)-3a-(4-acetylpiperazine-1-carboxamido)-5a,5b,8,8,11a-pentamethyl-1-(prop-1-en-2-yl)-2,3,3a,4,5,5a,5b,6,7,7a,8,11,11a,11b,12,13,13a,13b-octadecahydro-1H-cyclopenta[a]chrysen-9-yl)benzoic acid] | < 100
C=C(C)[C@@H]1CC[C@]2(NC(=O)N3CCNC(=O)CC3)CC[C@]3(C)[C@H](CC[C@@H]4[C@@]5(C)CC=C(c6ccc(C(=O)O)cc6)C(C)(C)[C@@H]5CC[C@]43C)[C@@H]12 [Example 42, 4-((1R,3aS,5aR,5bR,7aR,11aS,11bR,13aR,13bR)-5a,5b,8,8,11a-pentamethyl-3a-(5-oxo-1,4-diazepane-1-carboxamido)-1-(prop-1-en-2-yl)-2,3,3a,4,5,5a,5b,6,7,7a,8,11,11a,11b,12,13,13a,13b-octadecahydro-1H-cyclopenta[a]chrysen-9-yl)benzoic acid] | < 100
C=C(C)[C@@H]1CC[C@]2(NC(=O)N(C)CCN3CCCC3)CC[C@]3(C)[C@H](CC[C@@H]4[C@@]5(C)CC=C(c6ccc(C(=O)O)cc6)C(C)(C)[C@@H]5CC[C@]43C)[C@@H]12 [Example 44, 4-((1R,3aS,5aR,5bR,7aR,11aS,11bR,13aR,13bR)-5a,5b,8,8,11a-pentamethyl-3a-(3-methyl-3-(2-(pyrrolidin-1-yl)ethyl)ureido)-1-(prop-1-en-2-yl)-2,3,3a,4,5,5a,5b,6,7,7a,8,11,11a,11b,12,13,13a,13b-octadecahydro-1H-cyclopenta[a]chrysen-9-yl)benzoic acid] | < 100

same assay, conditions: Renilla, NL43, luciferase activity in cells infected for 4-5 days with NLRluc recombinants, serial dilutions of inhibitor; numeric values; read-out: EC50

SMILES | EC50 [nM]
C=C(C)[C@@H]1CC[C@]2(NC(=O)N3CCCN(C)CC3)CC[C@]3(C)[C@H](CC[C@@H]4[C@@]5(C)CC=C(c6ccc(C(=O)O)cc6)C(C)(C)[C@@H]5CC[C@]43C)[C@@H]12 [Example 34, 4-((1R,3aS,5aR,5bR,7aR,11aS,11bR,13aR,13bR)-5a,5b,8,8,11a-pentamethyl-3a-(4-methyl-1,4-diazepane-1-carboxamido)-1-(prop-1-en-2-yl)-2,3,3a,4,5,5a,5b,6,7,7a,8,11,11a,11b,12,13,13a,13b-octadecahydro-1H-cyclopenta[a]chrysen-9-yl)benzoic acid] | 2
C=C(C)[C@@H]1CC[C@]2(NC(=O)N3CCN(C4CCCC4)C(=O)C3)CC[C@]3(C)[C@H](CC[C@@H]4[C@@]5(C)CC=C(c6ccc(C(=O)O)cc6)C(C)(C)[C@@H]5CC[C@]43C)[C@@H]12 [Example 37, 4-((1R,3aS,5aR,5bR,7aR,11aS,11bR,13aR,13bR)-3a-(4-cyclopentyl-3-oxopiperazine-1-carboxamido)-5a,5b,8,8,11a-pentamethyl-1-(prop-1-en-2-yl)-2,3,3a,4,5,5a,5b,6,7,7a,8,11,11a,11b,12,13,13a,13b-octadecahydro-1H-cyclopenta[a]chrysen-9-yl)benzoic acid] | 4
C=C(C)[C@@H]1CC[C@]2(NC(=O)N(CCN)CCC(=O)O)CC[C@]3(C)[C@H](CC[C@@H]4[C@@]5(C)CC=C(c6ccc(C(=O)O)cc6)C(C)(C)[C@@H]5CC[C@]43C)[C@@H]12 [Example 43, 4-((1R,3aS,5aR,5bR,7aR,11aS,11bR,13aR,13bR)-3a-(3-(2-aminoethyl)-3-(2-carboxyethyl)ureido)-5a,5b,8,8,11a-pentamethyl-1-(prop-1-en-2-yl)-2,3,3a,4,5,5a,5b,6,7,7a,8,11,11a,11b,12,13,13a,13b-octadecahydro-1H-cyclopenta[a]chrysen-9-yl)benzoic acid] | 30
